Each structure is given as a SMILES string. Where two headings read alike, the source gives them in different places.

Data set [1] has as its system HIV-1 (IIIB) in MT-4 cells. Put plainly: HIV MT-4 antiviral assay. Format: cell-based. Particulars: Human immunodeficiency virus 1, MT4, 120 h, 5 days, Cell Titer Glo. As for the experimental part: Example 47: HIV MT-4 Antiviral and Cytotoxicity Assay
Antiviral Assay in MT-4 Cells
(§1) Compounds were tested in a high-throughput 384-well assay format for their ability to inhibit the replication of HIV-1 (IIIB) in MT-4 cells. Compounds were serially diluted (1:3) in DMSO on 384-well polypropylene plates and further diluted 200-fold into complete RPMI media (10% FBS, 1% P/S) using the Biotek Micro Flow and Labcyte ECHO acoustic dispenser. Each plate contained up to 8 test compounds, with negative (No Drug Control) and 5 μM AZT positive controls. MT-4 cells were pre-infected with 10 μL of either RPMI (mock-infected) or a fresh 1:250 dilution of HIV-1 IIIB concentrated virus stock. Infected and uninfected MT-4 cells were further diluted in complete RPMI media and added to each plate using a Micro Flow dispenser. After 5 days incubation in a humidified and temperature controlled incubator (37° C.), Cell Titer Glo (Promega) was added to the assay plates and chemiluminescence read using an Envision plate-reader. EC50 values were defined as the compound concentration that causes a 50% decrease in luminescence signal, and were calculated using a sigmoidal dose-response model to generate curve fits.
A general note: Cellular ATP, detected with luciferase, serves as a proxy for viable cell number.

Data set [2] in a line: Cytotoxicity assay in MT-4 cells. Format: cell-based. The following applies: human, uninfected MT-4 cells, Cell Titer Glo. As for the experimental part:
as §1, with “fits. Cytotoxicity Assay in MT-4 Cells Assays were performed as above except uninfected MT-4 cells were added to each well containing test compound. In addition, 10 μM puromycin was added to the last column of each assay plate to assess a base level of cytotoxicity.” for “fits.”

Data set [3] concerns pLai RLuc reporter virus in MT-4 cells. Put plainly: HIV MT-4 serum shift antiviral reporter assay. Format: cell-based. The following applies: Human immunodeficiency virus 1, MT4, 72 h, read-out: RLUC CCM. On the procedure: Example 48: HIV MT-4 Serum Shift Antiviral Reporter Assay
To quantify the amount of protein binding to human serum, compounds were serially diluted (1:3) in DMSO and acoustically transferred onto 384-well assay plates via a Labcyte ECHO robot. Each plate contained up to 8 test compounds, including negative and positive controls, (DMSO, 5 μM AZT respectively). Assay plates were prepared in duplicate, and tested in either CCM (cell culture media) or HS/CCM (human serum/cell culture media). MT-4 cells were first pre-infected with pLai RLuc reporter virus for 2 h at 37° C., then further diluted in either CCM (RPMI media, 10% FBS, 1% P/S) or HS/CCM (RPMI media, 10% FBS, 50% HS, 1% P/S), and subsequently added to each plate using a Biotek Micro Flow dispenser. After a 72-h incubation in a humidified and temperature controlled incubator (37° C.), Renilla Glo (Promega) was added to all assay plates and chemiluminescence read using an Envision plate-reader. EC50 values were defined as the compound concentration that causes a 50% decrease in luminescence signal, and were calculated using a sigmoidal dose-response model to generate curve fits. To determine the amount of protein binding, EC50 fold shifts (or EC50 shifts) were calculated by dividing EC50 (HS/CCM)/EC50 (CCM). […]
For orientation: Reporter assays use an easily measured gene product as a stand-in for the process of interest.

Data set [4] in a line: High throughput microsomal stability assay (human liver microsomes). Format: in vitro ADME. The following applies: for HLM stability: human liver microsomes, 1 uM compound, NADPH + UDPGA cofactors, 37 C. On the procedure: Example 49: High Throughput Microsomal Stability Assay
Metabolic stability of compounds was assessed using Human, or Rat Liver Microsomal assays (Corning). In this assay, 10 nL compounds at concentration of 1 mM in 100% DMSO were dispensed into 384-well polypropylene plates using the Echo 550 acoustic liquid dispenser (Labcyte®). Each plate contained 384 wells with a single test compound in each well.
A solution of human (Corning® Gentest™ Human Mixed Pooled Microsomes), or rat (Corning® Gentest™ Rat [Sprague-Dawley] Pooled Liver Microsomes) liver microsomes at 2 mg/ml in 100 mM K2HPO4/KH2PO4 pH 7.4 with Alamethicin from Trichoderma viride (Sigma-Aldrich) 0.0225 mg/ml were incubated on ice for 15 minutes. 5 uL of this solution was added to individual wells following 15 minute incubation at room temperature; and supplemented with 5 uL NADPH Regenerating Solution of cofactors (Corning® Gentest™ UGT Reaction Mix) containing 100 mM K2HPO4/KH2PO4 pH 7.4, 2.6 mM NADP+, 6.6 mM glucose-6-phosphate, 6.6 mM MgCl2, 0.8 U/mL glucose-6-phosphate dehydrogenase, 0.1 mM Sodium Citrate, 6.8 mM uridine diphosphate-glucuronic acid. Final concentration of analyte compounds at the beginning of the reaction was 1 uM. The reactions were incubated at 37° C. and time points of 0, 5, 15, 30, 40, 50, 60, and 70 minutes were collected for further analysis. Background data were collected using reactions without analyte compounds.
Upon collection of the reaction time points, samples were quenched with 30 uL of a solution of 72% acetonitrile, 8% methanol, 0.1% formic acid, 19.9% water, and internal standard (IS). Reaction plates were span in a centrifuge at speed of 4,000 rcf for 30 minutes and 4° C., following a dilution of the 10 uL quenched reaction into 40 uL de-ionized water, yielding assay plates.
Assay plates were analyzed using solid-state extraction coupled with quadrupole time-of-flight mass spectrometer, using Agilent QToF 6530 RapidFire 360 system, with C4 type A solid state cartridges. Analysis was performed in either positive or negative ionization modes. Mobile phases contained 0.1% formic acid in water for loading analytes onto solid state extraction cartridges, and 0.1% formic acid in acetonitrile for elution into mass spectrometer in positive ionization mode, or 0.1% acetic acid in water for loading and 0.1% acetic acid in acetonitrile for extraction in negative ionization mode. Peak-area ratios of integrated counts for individual compounds to IS were plotted as semi-logarithmic chart of log vs time. Initial, linear portion of decay was fitted to a linear regression equation to derive half time of a compound decay.
Pharmacological parameters for an analyte compound metabolism were calculated using the following equations: […]
Where. Calculation of In Vitro Intrinsic Clearance
Concentration refers to the protein concentration (mg/mL) in the reaction.
Calculation of In Vivo Intrinsic Clearance
This scales the in vitro intrinsic clearance up to the value that would be predicted for the entire mass of liver tissue (but with no restriction by blood flow). The value depends upon the size of the liver (species-dependent) and the yield of microsomal protein as appropriate (assumed to be species-independent).
Calculation of Predicted Clearance
Hepatic clearance will depend upon the inter-relationship of intrinsic clearance and hepatic blood flow and can be predicted from in vitro data using a variety of approaches.
Calculation of Hepatic Extraction
This is simply the predicted clearance expressed as a proportion of hepatic blood flow. E=CL/QH*100%
Intrinsic clearance of the instant compounds, as well as for reference compounds A-F, were calculated following the procedure above.
On the technique in general: Liver microsomes are vesicles of endoplasmic reticulum, rich in cytochrome P450 enzymes.

As a reminder, the CC50 is the concentration giving 50% cytotoxicity. The low end stands for greater toxicity to the cells, the high end for lower toxicity to the cells. As to `C[C@H]1CC[C@](C)(O)[C@H]2CN1C(=O)c1c(O)c(=O)c(C(=O)NCc3c(F)cc(F)cc3F)cn12` [Example 11, (1R,10S,13S)-6,13-dihydroxy-10,13-dimethyl-5,8-dioxo-N-[(2,4,6-trifluorophenyl)methyl]-2,9-diazatricyclo[7.4.1.02,7]tetradeca-3,6-diene-4-carboxamide], the EC50 was 1.5 nM in data set [1] and 0.84 nM in data set [3]. In addition, half-maximal cytotoxicity in data set [2] (CC50 at 5 days) was put at 38.7 µM. Also, in data set [4], the HLM stability stood at 0.25 L/h/kg. Further, the “MS Cl improvement” value in data set [4] (relative to compound D) is 2.7 times relative to compound D.

For the molecule `C[C@H]1C=C[C@@H](Cl)[C@H]2CN1C(=O)c1c(O)c(=O)c(C(=O)NCc3ccc(F)cc3F)cn12` [Example 13, (3S,6R,7R)-6-chloro-N-(2,4-difluorobenzyl)-12-hydroxy-3-methyl-1,11-dioxo-1,6,7,11-tetrahydro-3H-2,7-methanopyrido[1,2-a][1,4]diazonine-10-carboxamide], the EC50 in data set [1] is 1.5 nM. This molecule also yielded a CC50 at 5 days in data set [2] of 15.6 µM. Also, the EC50 in data set [3] is 0.55 nM. Further, in data set [4], the “MS Cl improvement” value was 1.5 times relative to compound E and the HLM stability turned out to be 0.26 L/h/kg.

`C[C@H]1C=C[C@](C)(O)[C@H]2CN1C(=O)c1c(O)c(=O)c(C(=O)NCc3c(F)cc(F)cc3F)cn12` [Example 15, (1R,10S,13S)-6,13-dihydroxy-10,13-dimethyl-5,8-dioxo-N-[(2,4,6-trifluorophenyl)methyl]-2,9-diazatricyclo[7.4.1.02,7]tetradeca-3,6,11-triene-4-carboxamide]: the figures for the EC50 in data set [1] and in data set [3] were 7.9 nM and 1.64 nM, respectively. The midpoint of cytotoxicity in data set [2], the CC50 at 5 days, lay at 28.4 µM. Besides, the HLM stability in data set [4] amounted to 0.19 L/h/kg.

Consider `C[C@H]1CC[C@H](O)[C@H]2CN1C(=O)c1c(O)c(=O)c(C(=O)NCc3ccc(F)cc3F)cn12` [Example 16, (3S,6S,7R)—N-(2,4-difluorobenzyl)-6,12-dihydroxy-3-methyl-1,11-dioxo-1,4,5,6,7,11-hexahydro-3H-2,7-methanopyrido[1,2-a][1,4]diazonine-10-carboxamide], for which the figures for the EC50 in data set [1] and in data set [3] were 2.6 nM and 1.14 nM, respectively. In data set [2], this molecule had a CC50 at 5 days of 41.4 µM. In data set [4], the HLM stability worked out at 0.11 L/h/kg.

For `C[C@H]1C=C[C@](C)(O)[C@H]2CN1C(=O)c1c(O)c(=O)c(C(=O)NCc3ccc(F)cc3F)cn12` [Example 17, (1R,10S,13S)—N-[(2,4-difluorophenyl)methyl]-6,13-dihydroxy-10,13-dimethyl-5,8-dioxo-2,9-diazatricyclo[7.4.1.02,7]tetradeca-3,6,11-triene-4-carboxamide], the EC50 turned out to be 3 nM in data set [1] and 1.33 nM in data set [3]. This molecule had a CC50 at 5 days in data set [2] of 31.4 µM. In addition, in data set [4], the HLM stability was determined as 0.17 L/h/kg.

Consider `CO[C@H]1C=C[C@H](C)N2C[C@H]1n1cc(C(=O)NCc3c(F)cc(F)cc3F)c(=O)c(O)c1C2=O` [Example 18, (3S,6S,7R)-12-hydroxy-6-methoxy-3-methyl-1,11-dioxo-N-(2,4,6-trifluorobenzyl)-1,6,7,11-tetrahydro-3H-2,7-methanopyrido[1,2-a][1,4]diazonine-10-carboxamide], for which the EC50 worked out at 1.4 nM in data set [1] and 0.55 nM in data set [3]. The molecule also returned a CC50 at 5 days in data set [2] of 13.4 µM. Further, the HLM stability in data set [4] stood at 0.73 L/h/kg.

`CO[C@H]1C=C[C@H](C)N2C[C@H]1n1cc(C(=O)NCc3ccc(F)cc3F)c(=O)c(O)c1C2=O` [Example 19, (3S,6S,7R)—N-(2,4-difluorobenzyl)-12-hydroxy-6-methoxy-3-methyl-1,11-dioxo-1,6,7,11-tetrahydro-3H-2,7-methanopyrido[1,2-a][1,4]diazonine-10-carboxamide]: the EC50 in data set [1] amounted to 1.1 nM; in data set [3], 0.38 nM. The molecule also had a CC50 at 5 days in data set [2] of 20 µM. The HLM stability in data set [4] stood at 0.47 L/h/kg.

These data come from patent US12421235B2, “Bridged tricyclic carbamoylpyridone compounds and uses thereof” (Gilead Sciences, Inc., priority 2020, dated 2025).
